From PMC10176470, “Engaging a Non-catalytic Cysteine Residue Drives Potent and Selective Inhibition of Caspase-6” (Journal of the American Chemical Society, 2023)
Like-named read-outs stand apart in the source and are kept apart here.

Legend:
Type in all cases: cell-based
[1] = target: proteins of HEK293T cells transiently overexpressing caspase-6 (Homo sapiens, UniProt P14866); conditions: exp_ref Probe; protein HNRNPL (P14866); analysis C6
[2] = target: proteins of HEK293T cells transiently overexpressing caspase-6 (Homo sapiens, UniProt P13010); conditions: protein XRCC5 (P13010)
[3] = target: T1, proteins of HEK293T cells transiently overexpressing caspase-6 (Homo sapiens, UniProt P30519); conditions: protein HMOX2 (P30519)
T1 sequence (P30519 1-316): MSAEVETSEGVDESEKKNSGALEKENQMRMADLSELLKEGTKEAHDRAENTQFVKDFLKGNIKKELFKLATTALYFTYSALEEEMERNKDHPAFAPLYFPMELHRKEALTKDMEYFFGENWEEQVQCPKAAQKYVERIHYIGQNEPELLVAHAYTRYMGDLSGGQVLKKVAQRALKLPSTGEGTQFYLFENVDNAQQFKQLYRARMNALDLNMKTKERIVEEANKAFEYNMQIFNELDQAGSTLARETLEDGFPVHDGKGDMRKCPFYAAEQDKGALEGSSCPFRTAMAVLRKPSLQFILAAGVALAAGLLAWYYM

[4] = target: proteins of HEK293T cells transiently overexpressing caspase-6 (Homo sapiens, UniProt P36871); conditions: protein PGM1 (P36871); exp_ref Probe; analysis C6
[5] = target: proteins of HEK293T cells transiently overexpressing caspase-6 (Homo sapiens, UniProt Q9Y617); conditions: Probe; protein PSAT1 Q9Y617
[6] = target: proteins of HEK293T cells transiently overexpressing caspase-6 (Homo sapiens, UniProt P09429); conditions: Probe; protein HMGB1 P09429
[7] = target: proteins of HEK293T cells transiently overexpressing caspase-6 (Homo sapiens, UniProt P49736); conditions: Probe; protein MCM2 P49736
[8] = target: proteins of HEK293T cells transiently overexpressing caspase-6 (Homo sapiens, UniProt P30153); conditions: exp_ref Probe; protein PPP2R1A (P30153); analysis C6
[9] = target: proteins of HEK293T cells transiently overexpressing caspase-6 (Homo sapiens, UniProt Q14980); conditions: exp_ref Probe; protein NUMA1 (Q14980); analysis C6
[10] = target: proteins of HEK293T cells transiently overexpressing caspase-6 (Homo sapiens, UniProt P48643); conditions: protein CCT5 (P48643)
[11] = target: proteins of HEK293T cells transiently overexpressing caspase-6 (Homo sapiens, UniProt P50991); conditions: exp_ref Probe; protein CCT4 (P50991); analysis C6
[12] = target: proteins of HEK293T cells transiently overexpressing caspase-6 (Homo sapiens, UniProt P37802); conditions: exp_ref Probe; protein TAGLN2 (P37802); analysis C6
[13] = target: T2, proteins of HEK293T cells transiently overexpressing caspase-6 (Homo sapiens, UniProt P00390)
T2 sequence (P00390 44-522): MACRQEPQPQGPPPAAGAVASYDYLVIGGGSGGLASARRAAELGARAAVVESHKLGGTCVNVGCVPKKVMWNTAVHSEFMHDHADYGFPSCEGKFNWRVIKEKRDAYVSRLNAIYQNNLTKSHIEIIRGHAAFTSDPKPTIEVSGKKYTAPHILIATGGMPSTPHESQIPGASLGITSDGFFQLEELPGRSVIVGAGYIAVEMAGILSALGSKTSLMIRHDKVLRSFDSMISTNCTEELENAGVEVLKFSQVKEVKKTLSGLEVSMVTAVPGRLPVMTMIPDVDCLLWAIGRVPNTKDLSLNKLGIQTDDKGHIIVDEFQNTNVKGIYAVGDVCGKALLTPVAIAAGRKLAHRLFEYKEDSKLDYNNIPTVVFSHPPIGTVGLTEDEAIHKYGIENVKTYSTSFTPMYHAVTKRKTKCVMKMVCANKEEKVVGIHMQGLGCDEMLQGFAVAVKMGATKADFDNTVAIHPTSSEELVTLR

[14] = target: T3, proteins of HEK293T cells transiently overexpressing caspase-6 (Homo sapiens, UniProt Q9UQ80); conditions: protein PA2G4 (Q9UQ80)
T3 sequence (Q9UQ80 1-394): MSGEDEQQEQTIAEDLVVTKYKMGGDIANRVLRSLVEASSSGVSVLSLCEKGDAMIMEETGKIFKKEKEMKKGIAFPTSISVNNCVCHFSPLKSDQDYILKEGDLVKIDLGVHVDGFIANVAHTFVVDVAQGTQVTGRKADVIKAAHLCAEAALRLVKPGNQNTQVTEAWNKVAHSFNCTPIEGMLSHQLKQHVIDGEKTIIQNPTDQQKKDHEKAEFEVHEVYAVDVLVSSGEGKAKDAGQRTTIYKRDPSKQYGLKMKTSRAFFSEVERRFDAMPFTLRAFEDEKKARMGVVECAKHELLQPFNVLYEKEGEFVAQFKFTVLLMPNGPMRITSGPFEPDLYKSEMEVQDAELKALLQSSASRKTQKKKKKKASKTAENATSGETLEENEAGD

[15] = target: proteins of HEK293T cells transiently overexpressing caspase-6 (Homo sapiens, UniProt P34897); conditions: Probe; protein SHMT2 P34897
[16] = target: proteins of HEK293T cells transiently overexpressing caspase-6 (Homo sapiens, UniProt P78527); conditions: exp_ref Probe; protein PRKDC (P78527); analysis C6

Chain of proteins of HEK293T cells transiently overexpressing caspase-6 (Homo sapiens, UniProt P48643) (P48643 whole entry): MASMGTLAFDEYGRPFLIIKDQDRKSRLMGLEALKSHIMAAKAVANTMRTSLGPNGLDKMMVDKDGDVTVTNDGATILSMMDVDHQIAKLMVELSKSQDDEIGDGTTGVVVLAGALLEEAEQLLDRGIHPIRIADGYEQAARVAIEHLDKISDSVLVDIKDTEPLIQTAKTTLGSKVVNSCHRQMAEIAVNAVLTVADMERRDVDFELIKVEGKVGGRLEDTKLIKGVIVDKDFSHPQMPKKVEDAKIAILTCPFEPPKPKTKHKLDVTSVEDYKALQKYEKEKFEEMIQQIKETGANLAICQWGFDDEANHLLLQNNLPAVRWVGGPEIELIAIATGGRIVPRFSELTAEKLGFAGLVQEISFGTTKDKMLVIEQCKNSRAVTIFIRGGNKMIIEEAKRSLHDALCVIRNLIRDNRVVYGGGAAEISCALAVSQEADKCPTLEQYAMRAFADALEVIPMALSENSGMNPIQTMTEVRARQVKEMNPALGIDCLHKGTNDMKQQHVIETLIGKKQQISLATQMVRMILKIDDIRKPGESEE
Chain of proteins of HEK293T cells transiently overexpressing caspase-6 (Homo sapiens, UniProt P13010) (P13010 whole entry): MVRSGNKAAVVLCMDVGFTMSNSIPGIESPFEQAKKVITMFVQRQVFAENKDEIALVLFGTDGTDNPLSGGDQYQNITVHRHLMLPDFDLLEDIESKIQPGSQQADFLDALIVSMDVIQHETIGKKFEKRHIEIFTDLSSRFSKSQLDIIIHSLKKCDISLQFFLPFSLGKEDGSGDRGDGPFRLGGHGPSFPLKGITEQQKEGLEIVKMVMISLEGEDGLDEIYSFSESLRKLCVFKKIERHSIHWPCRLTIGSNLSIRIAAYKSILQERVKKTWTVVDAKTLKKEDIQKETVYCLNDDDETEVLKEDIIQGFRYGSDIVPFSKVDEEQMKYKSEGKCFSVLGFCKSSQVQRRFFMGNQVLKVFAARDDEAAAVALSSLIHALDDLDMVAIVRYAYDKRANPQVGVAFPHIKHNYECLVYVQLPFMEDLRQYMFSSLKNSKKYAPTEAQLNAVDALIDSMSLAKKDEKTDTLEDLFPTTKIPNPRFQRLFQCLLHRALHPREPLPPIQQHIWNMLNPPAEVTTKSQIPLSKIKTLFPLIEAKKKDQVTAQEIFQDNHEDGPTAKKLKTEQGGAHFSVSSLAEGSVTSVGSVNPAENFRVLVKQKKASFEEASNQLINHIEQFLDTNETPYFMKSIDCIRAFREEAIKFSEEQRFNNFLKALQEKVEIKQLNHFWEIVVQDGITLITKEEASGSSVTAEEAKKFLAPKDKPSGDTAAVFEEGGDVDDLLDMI
Chain of proteins of HEK293T cells transiently overexpressing caspase-6 (Homo sapiens, UniProt P30153) (P30153 whole entry): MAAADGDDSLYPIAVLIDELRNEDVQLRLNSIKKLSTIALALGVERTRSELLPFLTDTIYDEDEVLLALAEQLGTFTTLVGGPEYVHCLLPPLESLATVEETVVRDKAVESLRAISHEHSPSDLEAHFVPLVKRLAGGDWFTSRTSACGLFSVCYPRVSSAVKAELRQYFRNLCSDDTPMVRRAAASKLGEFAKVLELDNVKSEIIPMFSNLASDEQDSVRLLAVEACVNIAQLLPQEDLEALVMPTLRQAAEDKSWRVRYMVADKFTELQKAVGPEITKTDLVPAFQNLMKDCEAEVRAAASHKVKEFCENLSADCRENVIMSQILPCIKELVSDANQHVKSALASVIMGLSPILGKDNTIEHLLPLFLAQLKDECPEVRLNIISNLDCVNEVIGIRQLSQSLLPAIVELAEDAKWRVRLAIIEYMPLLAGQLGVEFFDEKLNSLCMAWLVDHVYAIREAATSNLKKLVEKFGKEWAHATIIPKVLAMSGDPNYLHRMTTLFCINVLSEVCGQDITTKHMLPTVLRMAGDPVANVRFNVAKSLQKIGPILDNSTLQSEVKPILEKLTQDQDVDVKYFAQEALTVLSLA
Chain of proteins of HEK293T cells transiently overexpressing caspase-6 (Homo sapiens, UniProt P50991) (P50991 whole entry): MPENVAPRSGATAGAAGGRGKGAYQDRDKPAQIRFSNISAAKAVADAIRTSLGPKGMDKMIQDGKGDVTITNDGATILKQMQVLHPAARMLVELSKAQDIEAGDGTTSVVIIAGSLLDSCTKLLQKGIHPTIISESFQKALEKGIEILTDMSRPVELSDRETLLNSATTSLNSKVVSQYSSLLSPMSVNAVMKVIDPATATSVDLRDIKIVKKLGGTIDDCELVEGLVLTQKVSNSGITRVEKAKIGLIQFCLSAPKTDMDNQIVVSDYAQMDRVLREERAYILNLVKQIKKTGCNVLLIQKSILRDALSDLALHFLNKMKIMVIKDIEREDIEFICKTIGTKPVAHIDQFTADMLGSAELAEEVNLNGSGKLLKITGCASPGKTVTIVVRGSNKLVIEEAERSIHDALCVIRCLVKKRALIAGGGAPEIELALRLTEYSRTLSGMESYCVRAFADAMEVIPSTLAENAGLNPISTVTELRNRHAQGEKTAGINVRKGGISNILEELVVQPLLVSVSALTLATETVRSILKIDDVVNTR
Chain of proteins of HEK293T cells transiently overexpressing caspase-6 (Homo sapiens, UniProt Q9Y617) (Q9Y617 whole entry): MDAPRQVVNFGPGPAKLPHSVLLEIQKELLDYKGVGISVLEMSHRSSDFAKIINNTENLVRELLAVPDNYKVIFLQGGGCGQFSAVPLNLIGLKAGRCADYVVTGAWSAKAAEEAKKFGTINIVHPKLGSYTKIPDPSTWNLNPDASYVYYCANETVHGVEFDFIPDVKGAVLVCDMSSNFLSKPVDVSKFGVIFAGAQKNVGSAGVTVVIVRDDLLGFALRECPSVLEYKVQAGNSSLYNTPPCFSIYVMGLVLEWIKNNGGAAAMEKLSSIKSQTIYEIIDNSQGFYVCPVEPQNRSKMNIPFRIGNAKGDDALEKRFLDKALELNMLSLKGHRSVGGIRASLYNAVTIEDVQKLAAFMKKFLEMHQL
Chain of proteins of HEK293T cells transiently overexpressing caspase-6 (Homo sapiens, UniProt Q14980) (Q14980 whole entry): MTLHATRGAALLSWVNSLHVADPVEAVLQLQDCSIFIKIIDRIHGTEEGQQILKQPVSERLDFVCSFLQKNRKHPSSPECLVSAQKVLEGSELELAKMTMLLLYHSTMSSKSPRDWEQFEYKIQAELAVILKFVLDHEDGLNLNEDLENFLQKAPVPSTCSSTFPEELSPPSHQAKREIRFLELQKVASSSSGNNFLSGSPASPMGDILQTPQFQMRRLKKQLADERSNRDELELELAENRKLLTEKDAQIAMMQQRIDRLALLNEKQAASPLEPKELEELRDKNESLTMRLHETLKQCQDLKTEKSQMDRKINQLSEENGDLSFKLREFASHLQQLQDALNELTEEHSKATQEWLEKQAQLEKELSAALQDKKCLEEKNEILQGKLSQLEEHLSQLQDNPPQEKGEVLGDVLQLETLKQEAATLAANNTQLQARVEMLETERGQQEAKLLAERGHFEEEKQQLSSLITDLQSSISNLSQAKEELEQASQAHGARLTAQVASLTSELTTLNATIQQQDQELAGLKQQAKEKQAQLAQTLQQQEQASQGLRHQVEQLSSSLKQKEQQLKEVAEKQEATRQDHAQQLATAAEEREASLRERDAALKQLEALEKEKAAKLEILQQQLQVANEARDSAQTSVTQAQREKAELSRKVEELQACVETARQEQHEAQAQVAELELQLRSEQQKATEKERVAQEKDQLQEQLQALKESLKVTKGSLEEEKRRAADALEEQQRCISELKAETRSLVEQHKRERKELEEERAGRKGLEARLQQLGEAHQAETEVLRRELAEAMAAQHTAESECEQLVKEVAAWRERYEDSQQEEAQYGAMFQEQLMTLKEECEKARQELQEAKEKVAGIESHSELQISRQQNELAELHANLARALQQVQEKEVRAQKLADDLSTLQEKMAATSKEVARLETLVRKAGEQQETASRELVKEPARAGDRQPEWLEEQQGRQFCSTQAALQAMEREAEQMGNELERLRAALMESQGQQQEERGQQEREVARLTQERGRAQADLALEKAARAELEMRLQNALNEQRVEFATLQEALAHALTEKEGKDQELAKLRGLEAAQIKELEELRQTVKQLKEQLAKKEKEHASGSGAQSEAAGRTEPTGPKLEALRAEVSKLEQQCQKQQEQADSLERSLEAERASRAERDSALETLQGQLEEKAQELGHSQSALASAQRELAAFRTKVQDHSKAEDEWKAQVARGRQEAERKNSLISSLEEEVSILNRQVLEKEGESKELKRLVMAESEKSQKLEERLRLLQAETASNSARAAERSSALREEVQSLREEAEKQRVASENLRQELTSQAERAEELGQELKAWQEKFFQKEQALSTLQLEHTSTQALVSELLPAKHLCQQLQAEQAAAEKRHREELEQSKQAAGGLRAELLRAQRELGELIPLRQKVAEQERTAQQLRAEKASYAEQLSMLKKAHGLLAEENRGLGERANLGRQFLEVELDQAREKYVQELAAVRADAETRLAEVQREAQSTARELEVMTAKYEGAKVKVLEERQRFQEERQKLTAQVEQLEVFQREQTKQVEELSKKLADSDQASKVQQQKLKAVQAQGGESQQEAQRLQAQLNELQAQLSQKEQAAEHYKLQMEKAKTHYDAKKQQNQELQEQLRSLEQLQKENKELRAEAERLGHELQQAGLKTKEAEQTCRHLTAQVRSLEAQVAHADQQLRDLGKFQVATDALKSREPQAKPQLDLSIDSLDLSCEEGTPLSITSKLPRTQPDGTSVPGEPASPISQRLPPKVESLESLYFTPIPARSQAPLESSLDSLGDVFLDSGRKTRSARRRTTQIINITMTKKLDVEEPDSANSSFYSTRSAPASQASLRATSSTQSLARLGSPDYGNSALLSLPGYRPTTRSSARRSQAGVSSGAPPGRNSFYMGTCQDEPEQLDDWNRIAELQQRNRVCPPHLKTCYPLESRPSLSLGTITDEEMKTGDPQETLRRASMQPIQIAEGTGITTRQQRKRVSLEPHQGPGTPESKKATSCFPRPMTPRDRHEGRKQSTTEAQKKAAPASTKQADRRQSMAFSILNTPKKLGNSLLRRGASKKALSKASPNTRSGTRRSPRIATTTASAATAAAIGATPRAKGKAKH

Work on C#CCOc1ccc([C@@H]2C[C@@H](C(=O)Nc3ccc(OC(F)(F)F)cc3)CN(S(=O)(=O)C=C)C2)cc1 (relative stereo) [13-t] yielded an enrich.exp.med [1] of 0.1244, an enrich.exp.med ([2]; exp_ref Probe, analysis C6) of 0.8127 and an enrich.exp.med.lin [2] of 1.757. The enrich.exp.med.log2 [2] was 0.8127, the enrich.exp.med.lin [3] was 4.772 and the enrich.exp.med.log2 [3] was 2.255. For the same molecule, the enrich.exp.med.lin ([3]; Expt Probe, analysis C6) was 4.772, the enrich.exp.med.log2 ([3]; Expt Probe, analysis C6) was 2.255 and the enrich.exp.med ([3]; exp_ref Probe, analysis C6) was 2.255. For the same molecule, the enrich.exp.med [4] was 1.9053, the enrich.exp.med [5] was -1.015 and the enrich.exp.med [6] was -1.399. For the same molecule, the enrich.exp.med [7] was -1.091, the enrich.exp.med [8] was 0.444 and the enrich.exp.med [9] was -0.2955. The enrich.exp.med ([10]; exp_ref Probe, analysis C6) was 0.7352, the enrich.exp.med.lin [10] was 1.665 and the enrich.exp.med.log2 [10] was 0.7352. For the same molecule, the enrich.exp.med [11] was 0.3881, the enrich.exp.med [12] was 0.7525 and the enrich.exp.med ([13]; Probe, protein GSR P00390) was -1.323. The enrich.exp.med.lin ([13]; protein GSR (P00390)) was 0.3998, the enrich.exp.med.log2 ([13]; protein GSR (P00390)) was -1.323 and the enrich.exp.med.lin [14] was 2.618. It also gave an enrich.exp.med.log2 [14] of 1.389, an enrich.exp.med ([14]; exp_ref Probe, analysis C6) of 1.389 and an enrich.exp.med [15] of -2.762. It also gave an enrich.exp.med [16] of 0.5475.
